Experimental findings from US8580965B2, “Substituted sulfonamide compounds” (Gruenenthal GmbH, priority 2006, dated 2013) are described below.

Molecules are shown by their SMILES.

The test has as its target T1, human B1R receptor (bradykinin 1 receptor) (Homo sapiens, UniProt P46663).
T1 construct: host or cells: CHO K1 cells (hB1R cells)
T1 sequence (P46663 1-353): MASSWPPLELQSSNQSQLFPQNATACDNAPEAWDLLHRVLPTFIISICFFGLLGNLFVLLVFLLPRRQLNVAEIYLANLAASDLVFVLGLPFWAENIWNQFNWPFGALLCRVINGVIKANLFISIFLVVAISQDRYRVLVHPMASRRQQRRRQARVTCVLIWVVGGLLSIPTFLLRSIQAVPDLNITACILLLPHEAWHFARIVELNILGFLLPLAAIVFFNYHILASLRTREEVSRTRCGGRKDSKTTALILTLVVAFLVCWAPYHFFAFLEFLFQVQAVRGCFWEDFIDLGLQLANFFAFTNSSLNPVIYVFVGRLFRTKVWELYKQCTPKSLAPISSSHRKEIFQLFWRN
Put plainly: FLIPR Ca2+ assay (Fluo-4) on CHO K1 cells stably transfected with the human B1R gene; % activation and % inhibition at 10 μM. Conditions: CHO-K1, test substance 10 μM; CHO K1 hB1R cells; Ca2+ inflow after 0.5 nM Lys-Des-Arg9-bradykinin; read-out: B1R antagonism, human [10 μM] % inhibition. It counts as cell-based. How it is done:
The agonistic or antagonistic action of substances can be quantified on the bradykinin receptor 1 (B1R) of the species human and rat with ectopically expressing cell lines (CHO K1 cells) and with the aid of a Ca^2+-sensitive dye (Fluo-4) using a fluorescent imaging plate reader (FLIPR). The indication in % activation is based on the Ca^2+ signal after addition of Lys-Des-Arg^9-bradykinin (0.5 nM) or Des-Arg^9-bradykinin (100 nM). Antagonists result in a suppression of the Ca^2+ influx following administration of the agonist. The % inhibition in comparison with the maximum achievable inhibition is indicated.
Functional Investigation on the Bradykinin 1 Receptor (B1R)
The agonistic or antagonistic action of substances can be determined on the bradykinin 1 receptor (B1R) of the human and rat species with the following assay. According to this assay, the Ca^2+ inflow through the channel is quantified with the aid of a Ca^2+-sensitive dyes (Fluo-4 type, Molecular Probes Europe BV, Leiden, The Netherlands) in a fluorescent imaging plate reader (FLIPR, Molecular Devices, Sunnyvale, USA).
Chinese Hamster Ovary cells (CHO K1 cells) which are stably transfected with the human B1R gene (hB1R cells, Euroscreen s.a., Gosselies, Belgium) or the B1R gene of the rat (rB1R cells, Axxam, Milan, Italy) are used. For functional investigations, these cells are plated-out on black 96-well plates with a clear base (BD Biosciences, Heidelberg, Germany) in a density of 20,000-25,000 cells/well. Overnight, the cells are incubated at 37° C. and 5% CO2 in culture medium (hB1R cells: Nutrient Mixture Ham's F12, Gibco Invitrogen GmbH, Karlsruhe, Germany; rB1R cells: D-MEM/F12, Gibco Invitrogen, Karlsruhe, Germany) with 10 vol. % FBS (foetal bovine serum, Gibco Invitrogen GmbH, Karlsruhe, Germany). On the following day, the cells are loaded with 2.13 μM Fluo-4 (Molecular Probes Europe BV, Leiden, The Netherlands) in HBSS buffer (Hank's buffered saline solution, Gibco Invitrogen GmbH, Karlsruhe, Germany) […] (Sigma-Aldrich, Taufkirchen, Germany) and 10 mM HEPES (Sigma-Aldrich, Taufkirchen, Germany) for 60 min at 37° C. The plates are subsequently washed 2× with HBSS buffer, and HBSS buffer which additionally contains 0.1% BSA (bovine serum albumin; Sigma-Aldrich, Taufkirchen, Germany), 5.6 mM glucose and 0.05% gelatine (Merck KGaA, Darmstadt, Germany) is added. After a further incubation of 20 minutes at room temperature, the plates are inserted into the FLIPR for Ca^2+ measurement. The Ca^2+-dependent fluorescence is measured here before and after addition of substances (λex=488 nm, λem=540 nm). The quantification is effected by measurement of the highest fluorescence intensity (FC, fluorescence counts) over time.
The FLIPR protocol comprises 2 additions of substance. Test substances (10 μM) are first pipetted on to the cells and the Ca^2+ inflow is compared with the control (hB1R: Lys-Des-Arg^9-bradykinin 0.5 nM; rB1R: Des-Arg^9-bradykinin 100 nM). The value in % activation based on the Ca^2+ signal after addition of Lys-Des-Arg^9-bradykinin (0.5 nM) or Des-Arg^9-bradykinin (100 nM) is obtained therefrom. After incubation for 10 minutes, 0.5 nM Lys-Des-Arg^9-bradykinin (hB1R) or 100 nM Des-Arg^9-bradykinin (rB1R) are applied and the inflow of Ca^2+ is likewise determined. Antagonists lead to a suppression of the Ca^2+ inflow. % inhibition compared with the maximum inhibition which can be achieved is calculated. The compounds show a good activity on the human and on the rat receptor. The following data were determined by way of example: […]
For `COc1cc(C)c(S(=O)(=O)N2CCCCC2COCCC(=O)N2CCC(O)(c3ccc(Br)cc3)CC2)c(C)c1` (stereo not drawn) [Example 182, 1-(4-(4-bromophenyl)-4-hydroxypiperidin-1-yl)-3-((1-(4-methoxy-2,6-dimethylphenylsulfonyl)piperidin-2-yl)methoxy)propan-1-one], the inhibition at 10 µM came to 80%.
`O=C(COCC1CCCN1S(=O)(=O)c1ccc(Cl)c(Cl)c1)N1CCC(O)(c2cccnc2)CC1` (stereo not drawn) [Example 19, 2-[1-(3,4-dichloro-phenylsulfonyl)-pyrrolidin-2-ylmethoxy]-1-(4′-hydroxy-3′,4′,5′,6′-tetrahydro-2′H-[3,4′]bipyridinyl-1′-yl)-ethanone]: the inhibition at 10 µM is 23.2%.
The result for `COc1cc(C)c(S(=O)(=O)N2CCN(CCOCC(=O)N3CCC(O)(Cc4ccccc4)CC3)CC2)c(C)c1C` [Example 18, 1-(4-benzyl-4-hydroxy-piperidin-1-yl)-2-{2-[4-(4-methoxy-2,3,6-trimethyl-phenylsulfonyl)-piperazin-1-yl]-ethoxy}-ethanone] reads 23.5%; that for `COc1ccc(S(=O)(=O)N(C)CCOCC(=O)N2CCC(O)(Cc3ccccc3)CC2)cc1` [Example 28, N-{2-[2-(4-benzyl-4-hydroxy-piperidin-1-yl)-2-oxo-ethoxy]-ethyl}-4-methoxy-N-methyl-phenylsulfonamide], 8.5%; that for `O=C(COC1CCN(S(=O)(=O)c2ccc(Cl)cc2)C1)N1CCC(O)(Cc2ccccc2)CC1` (stereo not drawn) [Example 31, 1-(4-benzyl-4-hydroxy-piperidin-1-yl)-2-[1-(4-chloro-phenylsulfonyl)-pyrrolidin-3-yloxy]-ethanone], 6.81%.
Under `CN(CCOCC(=O)N1CCC(O)(Cc2ccccc2)CC1)S(=O)(=O)c1ccccc1` [Example 39, N-{2-[2-(4-benzyl-4-hydroxy-piperidin-1-yl)-2-oxo-ethoxy]-ethyl}-N-methyl-phenylsulfonamide] stands 2.99%; under `COc1ccc(S(=O)(=O)N2CCCC2COCC(=O)N2CCC(O)(Cc3ccccc3)CC2)cc1` (stereo not drawn) [Example 57, 1-(4-benzyl-4-hydroxy-piperidin-1-yl)-2-[1-(4-methoxy-phenylsulfonyl)-pyrrolidin-2-ylmethoxy]-ethanone], -16.2%.
Under `COc1cc(C)c(S(=O)(=O)N2CCC(OCCC(=O)N3CCC(O)(Cc4ccccc4)CC3)C2)c(C)c1` (stereo not drawn) [Example 189, 1-(4-benzyl-4-hydroxypiperidin-1-yl)-3-(1-(4-methoxy-2,6-dimethylphenylsulfonyl)pyrrolidin-3-yloxy)propan-1-one] stands 54.2%; under `O=C(COC1CCN(S(=O)(=O)c2ccc(F)cc2)C1)N1CCC(O)(Cc2ccccc2)CC1` (stereo not drawn) [Example 15, 1-(4-benzyl-4-hydroxy-piperidin-1-yl)-2-[1-(4-fluoro-phenylsulfonyl)-pyrrolidin-3-yloxy]-ethanone], 40.2%.
In the case of `COc1cc(C)c(S(=O)(=O)N2CCCC(OCC(=O)N3CCC(O)(Cc4ccccc4)CC3)C2)c(C)c1C` (stereo not drawn) [Example 11, 1-(4-benzyl-4-hydroxy-piperidin-1-yl)-2-[1-(4-methoxy-2,3,6-trimethyl-phenylsulfonyl)-piperidin-3-yloxy]-ethanone], the inhibition at 10 µM is 70.9%.
Under `COc1ccc(S(=O)(=O)N2CCCCC2CCOCC(=O)N2CCC(O)(Cc3ccccc3)CC2)cc1` (stereo not drawn) [Example 29, 1-(4-benzyl-4-hydroxy-piperidin-1-yl)-2-{2-[1-(4-methoxy-phenylsulfonyl)-piperidin-2-yl]-ethoxy}-ethanone] stands 7.66%; under `COc1cc(C)c(S(=O)(=O)N(CCOCC(=O)N2CCC(O)(Cc3ccccc3)CC2)Cc2ccccc2)c(C)c1C` [Example 13, N-benzyl-N-{2-[2-(4-benzyl-4-hydroxy-piperidin-1-yl)-2-oxo-ethoxy]-ethyl}-4-methoxy-2,3,6-trimethyl-phenylsulfonamide], 50.7%; under `O=C(COCCN1CCN(S(=O)(=O)c2ccccc2)CC1)N1CCC(O)(Cc2ccccc2)CC1` [Example 32, 2-[2-(4-phenylsulfonyl-piperazin-1-yl)-ethoxy]-1-(4-benzyl-4-hydroxy-piperidin-1-yl)-ethanone], 6.63%.
Regarding `O=C(COCC1CCCCN1S(=O)(=O)c1ccc(Cl)cc1)N1CCC(O)(Cc2ccccc2)CC1` (stereo not drawn) [Example 53, 1-(4-benzyl-4-hydroxy-piperidin-1-yl)-2-[1-(4-chloro-phenylsulfonyl)-piperidin-2-ylmethoxy]-ethanone], the inhibition at 10 µM was -11.4%.
The result for `COc1cc(C)c(S(=O)(=O)N2CCC(OCCC(=O)N3CCC(O)(c4ccc(Cl)cc4)CC3)C2)c(C)c1` (stereo not drawn) [Example 186, 1-(4-(4-chlorophenyl)-4-hydroxypiperidin-1-yl)-3-(1-(4-methoxy-2,6-dimethylphenylsulfonyl)pyrrolidin-3-yloxy)propan-1-one] reads 99.8%; that for `O=C(COC1CCN(S(=O)(=O)c2ccccc2)C1)N1CCC(O)(Cc2ccccc2)CC1` (stereo not drawn) [Example 22, 2-(1-phenylsulfonyl-pyrrolidin-3-yloxy)-1-(4-benzyl-4-hydroxy-piperidin-1-yl)-ethanone], 20.2%; that for `COc1cc(C)c(S(=O)(=O)N(C)CCCC(=O)N2CCC(O)(c3cccnc3)CC2)c(C)c1` [Example 114, N-(4-(4-hydroxy-4-(pyridin-3-yl)piperidin-1-yl)-4-oxobutyl)-4-methoxy-N,2,6-trimethylphenylsulfonamide], 102%.
Under `COc1ccc(S(=O)(=O)N2CCCCC2COCC(=O)N2CCC(O)(Cc3ccccc3)CC2)c(OC)c1` (stereo not drawn) [Example 60, 1-(4-benzyl-4-hydroxy-piperidin-1-yl)-2-[1-(2,4-dimethoxy-phenylsulfonyl)-piperidin-2-ylmethoxy]-ethanone] stands -44%.
The result for `COc1ccc(S(=O)(=O)N2CCCCC2COCC(=O)N2CCC(O)(Cc3ccccc3)CC2)cc1` (stereo not drawn) [Example 35, 1-(4-benzyl-4-hydroxy-piperidin-1-yl)-2-[1-(4-methoxy-phenylsulfonyl)-piperidin-2-ylmethoxy]-ethanone] reads 5.08%; that for `COc1ccc(S(=O)(=O)N(C)CCOCC(=O)N2CCC(O)(Cc3ccccc3)CC2)cc1OC` [Example 16, N-{2-[2-(4-benzyl-4-hydroxy-piperidin-1-yl)-2-oxo-ethoxy]-ethyl}-3,4-dimethoxy-N-methyl-phenylsulfonamide], 31.2%; that for `COc1cc(C)c(S(=O)(=O)N2CCC(OCCC(=O)N3CCC(O)(c4ccccc4)CC3)C2)c(C)c1` (stereo not drawn) [Example 188, 1-(4-hydroxy-4-phenylpiperidin-1-yl)-3-(1-(4-methoxy-2,6-dimethylphenylsulfonyl)pyrrolidin-3-yloxy)propan-1-one], 52.7%.
